Assay: gradient 5% acetonitrile 3 min, to 50% in 2 min, to 85% in 15 min, held 3 min, 100 µL/min
Settings: column: Zorbax Extend-C18 2.1 x 50 mm; eluents: water / acetonitrile, 0.1% formic acid
Outline: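 Mixtures of ~100 pure standards were chromatographed on a Zorbax Extend-C18 column (2.1 × 50 mm, 1.8 μm) at 100 μL/min using water and acetonitrile, each with 0.1% formic acid. Detection used a quadrupole time-of-flight mass spectrometer in positive and negative ionization mode, and data collection spanned 3 months. Retention time was obtained from adduct peaks picked computationally and each checked manually.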

Row | SMILES | RP-LC retention time
1 | COC(=O)CCNC(=O)C1c2ccccc2C(=O)N(CC(C)C)C12CCCCC2 (stereo unspecified) | 842 s
2 | CCSc1nnc(NC(=O)CCc2c(C)n[nH]c2C)s1 | 584 s
3 | O=C(Cn1cnc2ccccc2c1=O)N[C@H](C(=O)O)c1ccccc1 | 642 s
4 | CCC(=O)Nc1ccc(C2(C(=O)N3CCN(c4cccc(C)c4)CC3)CCC2)cc1 | 908 s
5 | O=C(Nc1ccc(F)cc1)c1c(O)c2cccnc2n(-c2ccccc2)c1=O | 1240 s
6 | CSc1ccccc1NC(=O)C(=O)NCC1(CO)CC1 | 727 s
7 | Cc1ccc(F)c(NC(=O)C2CC(=O)N(c3ccc4oc(C)nc4c3)C2)c1 (stereo unspecified) | 753 s
8 | Cc1ccc(NC(=O)C2CCN(S(C)(=O)=O)c3cc(Cl)ccc3O2)cc1 (stereo unspecified) | 1010 s
9 | Cc1nnc2ccc(-c3noc(-c4ccc(Cl)cc4)n3)cn12 | 959 s
10 | CC(C)NCc1ccc(-c2ccccc2)o1 | 612 s
11 | CCOC(=O)c1[nH]c(C)c(CCC(=O)N2CCC(C(=O)NC3CCCC3)CC2)c1C | 729 s
12 | CC(C(=O)NCc1ccco1)C1CCN(C(=O)c2cc3cc(Cl)ccc3[nH]2)CC1 (stereo unspecified) | 841 s
13 | Cc1ccc2c(NCc3ccc4c(c3)OCO4)c(C(=O)OC(C)C)cnc2n1 | 737 s
14 | COc1ccc2[nH]cc(CCNC(=O)Cn3nc(C)c4c(C)onc4c3=O)c2c1 | 698 s
15 | O=C(NCc1ccco1)c1c(O)c2sccc2[nH]c1=O | 787 s
16 | COC[C@@H]1CN(Cc2cc(Cl)ccc2F)C[C@H]1c1nc(C)no1 | 639 s
17 | CC(NC(=O)CCc1c(-c2ccc(Cl)cc2)nc2ccccn12)c1ccccc1 (stereo unspecified) | 700 s
18 | CCn1cc(-c2nc(C(=O)Nc3cccc(C)c3)cs2)c2cccnc21 | 1130 s

Row | SMILES | RP-LC retention time
19 | O=C1CCCC(=O)N1CCS(=O)(=O)N1CCN(c2cccc(Cl)c2Cl)CC1 | 887 s
20 | N#Cc1ccc(NC(=O)C(=O)c2ccc[nH]2)cc1 | 801 s
21 | CNC(=O)c1nc(C(=O)NCc2ccc(C)cc2)cs1 | 739 s
22 | N#Cc1cccc(NC(=O)c2cc(C3CC3)n3nccc3n2)c1 | 942 s
23 | CCOC(=O)c1[nH]c(C)c(CCC(=O)N2CCC(C(=O)NCc3ccc(C)o3)CC2)c1C | 739 s
24 | O=C(Cn1cccc1-c1nc(-c2ccc3c(c2)OCO3)no1)Nc1cc(F)cc(F)c1 | 1060 s
25 | COc1cc(CC(=O)N2CCc3cc(-c4csc(C)n4)ccc32)cc(OC)c1 | 1020 s
26 | Cc1nn(C)c(C)c1CCN(C)C(=O)CC1=C2CCCCC2N(C(C)C)C1=O (stereo unspecified) | 648 s
27 | COc1cccc(N2C(=O)CC(N3CCC(C(N)=O)CC3)C2=O)c1 (stereo unspecified) | 585 s
28 | CCN(CC)CCNc1ncnc2onc(-c3ccc(F)cc3)c12 | 625 s
29 | CSc1ncccc1C(=O)Nc1ccc2c(c1)CCC(=O)N2C | 684 s
30 | CCN(CC)C(=O)c1c(C)oc2ccn(Cc3ccc(F)cc3)c(=O)c12 | 787 s
31 | C=Cc1ccc(Cn2nc3ccc(S(=O)(=O)N4CCOCC4)cn3c2=O)cc1 | 864 s
32 | COc1ccc(NC(=O)c2cc(C(C)C)n(-c3nc4ccccc4s3)n2)cc1OC | 1200 s
33 | Cc1ccn2c(NC(=O)c3ccc([N+](=O)[O-])cc3)c(-c3ccccc3)nc2c1 | 667 s
34 | Cc1nc2c(sc3nc(-c4ccccc4)ccc32)c(=O)n1CC(=O)NCc1ccc(F)cc1 | 994 s
35 | COc1ccc2[nH]cc(CCNC(=O)c3cccc(NC(=O)c4nnc(CC(C)C)s4)c3)c2c1 | 938 s

Results, then the compound that gave them:

Row | RP-LC retention time | SMILES
36 | 636 s | O=C(NCc1ccco1)N1CCN(Cc2nc3cccnc3n2-c2cccc(F)c2)CC1
37 | 777 s | Cn1nc(-c2nc(Cc3ccccc3)no2)c2c1CCN(C(=O)C1CCOC1)C2 (stereo unspecified)
38 | 970 s | CC1CCCN(c2ccc(-c3noc(CN4CCc5ccccc5C4)n3)cn2)C1 (stereo unspecified)
39 | 891 s | O=C(c1cccc(Cl)c1)N1CCC(Cc2nnc(-c3ccccc3)o2)CC1
40 | 862 s | Cc1ccc(CNC(=O)C2CCN(S(=O)(=O)c3ccc4c(c3)sc(=O)n4C)CC2)cc1
41 | 703 s | O=C(c1noc2ccc(S(=O)(=O)N3CCN(c4ccccn4)CC3)cc12)N1CCCCC1
42 | 646 s | Cc1cc(NCC(=O)NC2CCCCC2)n2nc(-c3cccnc3)nc2n1
43 | 787 s | CN[C@@H](C)C(=O)N[C@H](C(=O)N1CCC[C@H]1c1nc(C(=O)c2ccc(F)cc2)cs1)C1CCCCC1
44 | 800 s | Cc1ccc(CNC(=O)C2CCN(Cc3cc4ccccc4n3Cc3ccccc3C)CC2)o1
45 | 699 s | COc1ccccc1N1CCN(C(=O)c2cn(-c3ccc(NC(=O)C4CC4)cn3)cn2)CC1
46 | 725 s | COc1ccccc1-c1noc(C2CCCN2C(=O)c2ccccn2)n1 (stereo unspecified)
47 | 693 s | c1cncc(-c2nc(-c3ccc(OC4CN(Cc5ccsc5)C4)cc3)no2)c1
48 | 909 s | O=c1ccc(-c2nc(-c3ccncc3)no2)nn1Cc1ccc(Cl)cc1
49 | 594 s | CN1CCN(C(=O)c2nnc(-c3ccc(S(=O)(=O)N4CCCC4)cc3)o2)CC1
50 | 695 s | CN(CC1CCOCC1)C(=O)Cc1ccccc1
51 | 736 s | CCC(C)NC(=O)Cn1c(=O)n(CCCCC(=O)NC2CCCC2)c(=O)c2ccccc21 (stereo unspecified)

Row | RP-LC retention time | SMILES
52 | 617 s | Cc1ccc(CNC(=O)c2ccc3ncnc(N4CCCC4)c3c2)o1
53 | 927 s | O=S(=O)(Cc1ccc(Cl)cc1)N1CCC(n2c(-c3ccco3)nc3cccnc32)C1 (stereo unspecified)
54 | 1020 s | O=C(Nc1ccccc1Br)N1CCc2nc(-c3ccc(F)cc3)ncc2C1
55 | 719 s | Cc1ccc(-c2ccc(N3CCCC(C(=O)NCc4ccco4)C3)nn2)cc1C (stereo unspecified)
56 | 816 s | Cc1cc(C2CCCN2C(=O)Cc2cccc(Cl)c2)no1 (stereo unspecified)
57 | 650 s | CC(Oc1ccc(-c2cnc3ccccc3n2)cc1)C(=O)N1CCN(c2ccccn2)CC1 (stereo unspecified)
58 | 854 s | Cn1nc(-c2ccccc2)cc1C(=O)Nc1nc2c(s1)CN(S(=O)(=O)C1CC1)CC2
59 | 746 s | CCn1ccc(C(=O)NC2CCN(C3=NS(=O)(=O)C(c4ccccc4)=C3C)CC2)n1
60 | 936 s | O=C(CCn1nnc2cc(-c3noc(-c4ccc(Cl)cc4)n3)ccc21)N1CCOCC1
61 | 778 s | COc1ccccc1NC(=O)C1CC(=O)N(c2ccc3c(c2)CCN3C(=O)C2CC2)C1 (stereo unspecified)
62 | 713 s | CN(C)S(=O)(=O)N1CC(c2noc(-c3cccnc3)n2)C2(CCOCC2)C1 (stereo unspecified)
63 | 555 s | O=C(NCC(=O)N1CCn2c1nc1ccccc12)c1ccc(=O)[nH]c1
64 | 732 s | CCOc1ccc(NC(=O)Cn2c(N3CCOCC3)nc(CC)cc2=O)cc1
65 | 1250 s | Cc1ccc(C)c(N2CCN(C(=O)C3CCCCN3S(=O)(=O)c3ccc(F)cc3)CC2)c1 (stereo unspecified)
66 | 969 s | Cc1nc(N2CCN(c3ncccn3)CC2)nc2c1C(=O)CC(c1ccccc1O)C2 (stereo unspecified)
